≈ marks a conversion by molar mass, not a printed value. Like-named read-outs stand apart in the source and are kept apart here.
What was measured:
Experiment in all cases: MIC by agar plate dilution method
Type in all cases: cell-based
A. calcoaceticus No. 14 = details: Acinetobacter calcoaceticus, NO.14, A. calcoaceticus No. 14; 10^6 CFU/ml; read-out: Minimum Inhibitory Concentration
Procedure: (§1) The minimum inhibitory concentrations (MIC: μg/ml) of the compounds of the present invention against various microorganisms were measured by an agar plate dilution method (inoculum size: 10^6 CFU/ml) by using Sensitivity Disk Agar (Nissui) in comparison with Cefotaxime and Ceftazidime as comparative compounds.
(§2) Minimum Inhibitory Concentration (μg/ml; 10^6 CFU/ml)

C. freundii No. 7 = details: Citrobacter freundii; C. freundii No. 7; 10^6 CFU/ml; read-out: Minimum Inhibitory Concentration
Procedure: as §1, §2

E. cloaceae Nek 39 = details: E. cloaceae Nek 39; 10^6 CFU/ml; read-out: Minimum Inhibitory Concentration
Procedure: as §1, §2

E. coli C/Rms149 = details: Escherichia coli, read-out: Minimum Inhibitory Concentration, E. coli C/Rms149; 10^6 CFU/ml
Procedure: as §1, §2

E. coli CSH2 = details: Escherichia coli, 10^6 CFU/ml, read-out: Minimum Inhibitory Concentration
Procedure: as §1, §2

E. coli CSH = details: Escherichia coli, 10^6 CFU/ml, read-out: Minimum Inhibitory Concentration
Procedure: as §1, §2

E. coli ML1410/Rte16 = details: Escherichia coli, ML1410/RTE16, read-out: Minimum Inhibitory Concentration, E. coli ML1410/Rte16; 10^6 CFU/ml
Procedure: as §1, §2

E. coli NIHJJC-2 = details: Escherichia coli, NIHJJC2, E. coli NIHJJC-2; 10^6 CFU/ml; read-out: Minimum Inhibitory Concentration
Procedure: as §1, §2

E. coli W3630/Rms212 = details: Escherichia coli, W3630/RMS212, read-out: Minimum Inhibitory Concentration, E. coli W3630/Rms212; 10^6 CFU/ml
Procedure: as §1, §2

E. coli W3630/Rms213 = details: Escherichia coli, W3630/RMS213, read-out: Minimum Inhibitory Concentration, E. coli W3630/Rms213; 10^6 CFU/ml
Procedure: as §1, §2

K. pneumoniae No. 42 = details: Klebsiella pneumoniae; K. pneumoniae No. 42; 10^6 CFU/ml; read-out: Minimum Inhibitory Concentration
Procedure: as §1, §2

P. aeruginosa AK109 = details: Pseudomonas aeruginosa, AK109, P. aeruginosa AK109; 10^6 CFU/ml; read-out: Minimum Inhibitory Concentration
Procedure: as §1, §2

P. aeruginosa AKR17 = details: Pseudomonas aeruginosa, AKR17, P. aeruginosa AKR17; 10^6 CFU/ml; read-out: Minimum Inhibitory Concentration
Procedure: as §1, §2

P. cepacia 23 = details: Burkholderia cepacia; P. cepacia 23; 10^6 CFU/ml; read-out: Minimum Inhibitory Concentration
Procedure: as §1, §2

P. maltophilia IID 1275 = details: Stenotrophomonas maltophilia, IID1275; P. maltophilia IID 1275; 10^6 CFU/ml; read-out: Minimum Inhibitory Concentration
Procedure: as §1, §2

P. mirabilis JY10 = details: Proteus mirabilis
Procedure: as §1, §2

P. vulgaris No. 33 = details: Proteus vulgaris
Procedure: as §1, §2

P. vulgaris OB1043 = details: Proteus vulgaris
Procedure: as §1, §2

S. aureus JS-1 = details: Staphylococcus aureus, JS1; S. aureus JS-1; 10^6 CFU/ml; read-out: Minimum Inhibitory Concentration
Procedure: as §1, §2

S. aureus NIHJJC-1 = details: Staphylococcus aureus, NIHJJC1, S. aureus NIHJJC-1; 10^6 CFU/ml; read-out: Minimum Inhibitory Concentration
Procedure: as §1, §2

S. marcescens No. 16-2 = details: Serratia marcescens
Procedure: as §1, §2

[1] = P. mirabilis JY10, 10^6 CFU/ml, read-out: Minimum Inhibitory Concentration
[2] = NO.33, read-out: Minimum Inhibitory Concentration
[3] = OB1043, P. vulgaris OB1043, 10^6 CFU/ml, read-out: Minimum Inhibitory Concentration
[4] = NO.162, S. marcescens No. 16-2, 10^6 CFU/ml, read-out: Minimum Inhibitory Concentration
[5] = P. vulgaris No. 33, 10^6 CFU/ml, read-out: Minimum Inhibitory Concentration

SMILES | MIC (A. calcoaceticus No. 14) [µg/mL] | MIC (C. freundii No. 7) [µg/mL] | MIC (E. cloaceae Nek 39) [µg/mL] | MIC (E. coli C/Rms149) [µg/mL] | MIC (E. coli CSH2) [µg/mL] | MIC (E. coli CSH) [µg/mL] | MIC (E. coli ML1410/Rte16) [µg/mL] | MIC (E. coli NIHJJC-2) [µg/mL] | MIC (E. coli W3630/Rms212) [µg/mL] | MIC (E. coli W3630/Rms213) [µg/mL] | MIC (K. pneumoniae No. 42) [µg/mL] | MIC (P. aeruginosa AK109) [µg/mL] | MIC (P. aeruginosa AKR17) [µg/mL] | MIC (P. cepacia 23) [µg/mL] | MIC (P. maltophilia IID 1275) [µg/mL] | MIC (P. mirabilis JY10; [1]) [µg/mL] | MIC (P. vulgaris OB1043; [3]) [µg/mL] | MIC (S. aureus JS-1) [µg/mL] | MIC (S. aureus NIHJJC-1) [µg/mL] | MIC (S. marcescens No. 16-2; [4]) [µg/mL] | also measured
C[N+]1(CC2=C(C(=O)[O-])N3C(=O)C(NC(=O)C(=NOC4(C(=O)O)CCC4)c4csc(N)n4)C3SC2)CCc2cc(O)c(O)cc2C1 (stereo not drawn) [Ex. 19, 7-[(Z)-2-(2-aminothiazol-4-yl)-2-(1-carboxy-1-cyclobutoxyimiino)acetamide]-3-(6,7-dihydroxy-2-methyl-1,2,3,4-tetrahydro2-isoquinolinium)methyl-3-cephem-4-carboxylate] | 0.2 (≈ 0.304 µM) | 0.78 (≈ 1.18 µM) | 0.1 (≈ 0.152 µM) | 0.025 (≈ 0.038 µM) | 0.05 (≈ 0.0759 µM) | 0.05 (≈ 0.0759 µM) | 0.025 (≈ 0.038 µM) | 0.05 (≈ 0.0759 µM) | 0.025 (≈ 0.038 µM) | 0.025 (≈ 0.038 µM) | 0.05 (≈ 0.0759 µM) | 0.025 (≈ 0.038 µM) | 0.1 (≈ 0.152 µM) | 0.0125 (≈ 0.019 µM) | 3.12 (≈ 4.74 µM) | 0.1 (≈ 0.152 µM) | 0.05 (≈ 0.0759 µM) | 100 (≈ 152 µM) | 25 (≈ 38 µM) | 0.39 (≈ 0.592 µM) | MIC (P. vulgaris No. 33; [2]): 0.05 µg/mL (≈ 0.0759 µM)
CC(C)ON=C(C(=O)NC1C(=O)N2C(C(=O)[O-])=C(C[N+]3(C)CCc4cc(O)c(O)cc4C3)CSC12)c1csc(N)n1 (stereo not drawn) [Ex. 13, 7-[(Z)-2-(2-aminothiazol-4-yl)-2-isopropoxyiminoacetamido]-3-(6,7-dihydroxy-2-methyl-1,2,3,4-tetrahydro-2-isoquinolinium)methyl-3-cephem-4-carboxylate] | 0.2 (≈ 0.332 µM) | 3.12 (≈ 5.18 µM) | 0.006 (≈ 0.00996 µM) | 0.025 (≈ 0.0415 µM) | 0.05 (≈ 0.083 µM) | 0.05 (≈ 0.083 µM) | 0.025 (≈ 0.0415 µM) | 0.05 (≈ 0.083 µM) | 0.0125 (≈ 0.0207 µM) | 0.05 (≈ 0.083 µM) | 0.1 (≈ 0.166 µM) | 0.05 (≈ 0.083 µM) | 0.2 (≈ 0.332 µM) | 0.05 (≈ 0.083 µM) | 12.5 (≈ 20.7 µM) | – | 0.2 (≈ 0.332 µM) | 12.5 (≈ 20.7 µM) | 3.12 (≈ 5.18 µM) | – | MIC (P. mirabilis JY10; JY10, read-out: Minimum Inhibitory Concentration): 0.39 µg/mL (≈ 0.647 µM); MIC (P. vulgaris No. 33; [5]): 0.1 µg/mL (≈ 0.166 µM); MIC (S. marcescens No. 16-2; NO.162, read-out: Minimum Inhibitory Concentration): 1.56 µg/mL (≈ 2.59 µM)
CO/N=C(\C(=O)NC1C(=O)N2C(C(=O)[O-])=C(C[N+]3(C)CCc4cc(O)ccc4C3)CSC12)c1csc(N)n1 (stereo not drawn) [Ex. 10, 7-[(Z)-2-(2-aminothiazol-4-yl)-2-methoxyiminoacetamido]-3-(6-hydroxy-2-methyl-1,2,3,4-tetrahydro-2-isoquinolinium)methyl-3-cephem-4-carboxylate] | 25 (≈ 44.8 µM) | 1.56 (≈ 2.79 µM) | 0.78 (≈ 1.4 µM) | 0.1 (≈ 0.179 µM) | ≤ 0.05 | 0.78 (≈ 1.4 µM) | 0.1 (≈ 0.179 µM) | 0.1 (≈ 0.179 µM) | 0.2 (≈ 0.358 µM) | 1.56 (≈ 2.79 µM) | 0.2 (≈ 0.358 µM) | 1.56 (≈ 2.79 µM) | > 25 | 6.25 (≈ 11.2 µM) | > 25 | 0.78 (≈ 1.4 µM) | – | 6.25 (≈ 11.2 µM) | 0.39 (≈ 0.698 µM) | 6.25 (≈ 11.2 µM) | MIC (P. vulgaris No. 33; [5]): 0.1 µg/mL (≈ 0.179 µM); MIC (P. vulgaris OB1043; OB1043, read-out: Minimum Inhibitory Concentration): 0.39 µg/mL (≈ 0.698 µM)
C[N+]1(CC2=C(C(=O)[O-])N3C(=O)C(NC(=O)C(=NOCC(=O)O)c4csc(N)n4)C3SC2)CCc2cc(O)c(O)cc2C1 (stereo not drawn) [Ex. 14-F, 7-[(Z)-2-(2-aminothiazol-4-yl)-2-carboxymethoxyiminoacetamido]-3-(6,7-dihydroxy-2-methyl-1,2,3,4-tetrahydro-2-isoquinolinium)methyl-3-cephem-4-carboxylate] | 0.1 (≈ 0.162 µM) | 0.78 (≈ 1.26 µM) | 0.006 (≈ 0.0097 µM) | 0.025 (≈ 0.0404 µM) | 0.025 (≈ 0.0404 µM) | 0.05 (≈ 0.0808 µM) | 0.025 (≈ 0.0404 µM) | 0.025 (≈ 0.0404 µM) | 0.006 (≈ 0.0097 µM) | 0.1 (≈ 0.162 µM) | 0.05 (≈ 0.0808 µM) | 0.05 (≈ 0.0808 µM) | 0.1 (≈ 0.162 µM) | 0.05 (≈ 0.0808 µM) | 3.12 (≈ 5.04 µM) | 0.2 (≈ 0.323 µM) | 0.1 (≈ 0.162 µM) | 50 (≈ 80.8 µM) | 12.5 (≈ 20.2 µM) | 0.39 (≈ 0.63 µM) | MIC (P. vulgaris No. 33; [2]): 0.05 µg/mL (≈ 0.0808 µM)
CON=C(C(=O)NC1C(=O)N2C(C(=O)[O-])=C(C[N+]3(C)CCc4cc(O)c(O)c(O)c4C3)CSC12)c1csc(N)n1 (stereo not drawn) [Ex. 12, 7-[(Z)-2-(2-aminothiazol-4-yl)-2-methoxyiminoacetamido]-3-(2-methyl-1,2,3,4-tetrahydro-6,7,8-trihydroxy-2-isoquinolinium)methyl-3-cephem-4-carboxylate] | 25 (≈ 42.3 µM) | 12.5 (≈ 21.2 µM) | 1.56 (≈ 2.64 µM) | 0.78 (≈ 1.32 µM) | 1.56 (≈ 2.64 µM) | 3.12 (≈ 5.28 µM) | 1.56 (≈ 2.64 µM) | 0.78 (≈ 1.32 µM) | 0.78 (≈ 1.32 µM) | 3.12 (≈ 5.28 µM) | 1.56 (≈ 2.64 µM) | 25 (≈ 42.3 µM) | 50 (≈ 84.7 µM) | 1.56 (≈ 2.64 µM) | 100 (≈ 169 µM) | 0.78 (≈ 1.32 µM) | 3.12 (≈ 5.28 µM) | 50 (≈ 84.7 µM) | 25 (≈ 42.3 µM) | 100 (≈ 169 µM) | MIC (P. vulgaris No. 33; [5]): 1.56 µg/mL (≈ 2.64 µM)
CO/N=C(\C(=O)NC1C(=O)N2C(C(=O)[O-])=C(C[N+]3(C)CCc4cc(OC(C)=O)ccc4C3)CSC12)c1csc(N)n1 (stereo not drawn) [Ex. 9, 7-[(Z)-2-(2-aminothiazol-4-yl)-2-methoxyiminoacetamido]-3-(6-acetoxy-2-methyl-1,2,3,4-tetrahydro-2-isoquinolinium)methyl-3-cephem-4-carboxylate] | > 25 | 6.25 (≈ 10.4 µM) | 1.56 (≈ 2.6 µM) | 0.2 (≈ 0.333 µM) | 0.1 (≈ 0.166 µM) | 1.56 (≈ 2.6 µM) | 0.2 (≈ 0.333 µM) | 0.2 (≈ 0.333 µM) | 0.2 (≈ 0.333 µM) | 3.12 (≈ 5.19 µM) | 0.78 (≈ 1.3 µM) | 3.12 (≈ 5.19 µM) | 25 (≈ 41.6 µM) | 12.5 (≈ 20.8 µM) | > 25 | 1.56 (≈ 2.6 µM) | 0.78 (≈ 1.3 µM) | 12.5 (≈ 20.8 µM) | 0.39 (≈ 0.649 µM) | 12.5 (≈ 20.8 µM) | MIC (P. vulgaris No. 33; [5]): 0.39 µg/mL (≈ 0.649 µM)
C[N+]1(CC2=C(C(=O)[O-])N3C(=O)C(NC(=O)C(=NOC4(C(=O)O)CCCC4)c4csc(N)n4)C3SC2)CCc2cc(O)c(O)cc2C1 (stereo not drawn) [Ex. 18-G, 7-[(Z)-2-(2-aminothiazol-4-yl)-2-(1-carboxy-1 cyclopentyloxyimino)acetamido]-3-(6,7-dihydroxy-2-methyl-1,2,3,4-tetrahydro-2-isoquinolinium)methyl-3-cephem-4-carboxylate] | 3.12 (≈ 4.64 µM) | 0.78 (≈ 1.16 µM) | 0.1 (≈ 0.149 µM) | 0.78 (≈ 1.16 µM) | 0.78 (≈ 1.16 µM) | 0.78 (≈ 1.16 µM) | 0.2 (≈ 0.297 µM) | 0.39 (≈ 0.58 µM) | 0.39 (≈ 0.58 µM) | 0.78 (≈ 1.16 µM) | 1.56 (≈ 2.32 µM) | 0.2 (≈ 0.297 µM) | 0.78 (≈ 1.16 µM) | 0.2 (≈ 0.297 µM) | 100 (≈ 149 µM) | 6.25 (≈ 9.29 µM) | 1.56 (≈ 2.32 µM) | > 100 | 25 (≈ 37.2 µM) | 12.5 (≈ 18.6 µM) | MIC (P. vulgaris No. 33; [5]): 6.25 µg/mL (≈ 9.29 µM)

Source: patent US4742053A, “3-Isoquinoliniomethyl cephalosporin derivatives” (Banyu Pharmaceutical Co., Ltd., priority 1984, dated 1988)
